Assay results as given in patent US8409619B2, “Oral drug delivery system for azole, moxifloxacin and rifampicin” (priority 2008, dated 2013).
Like-named read-outs stand apart in the source and are kept apart here.

Columns and labels:
M. tuberculosis H37Rv = experiment: Experimental infection and chemotherapy (murine tuberculosis, cfu in lungs and spleen); format: in vivo; settings: for Log10 cfu Lung / Log10 cfu Spleen: mice infected i.v. with M. tuberculosis H37Rv, eight weeks oral chemotherapy, sacrificed day 62, mean ± S.D.; for reduction of bacterial burden in organs / cfu reduction from lungs and spleen as compared to untreated controls: mice, eight weeks of chemotherapy; for cfu reduction from lungs and spleen as compared to untreated controls: free form daily/twice daily or encapsulated form weekly
[1] = not given; remark: listed apart in the source

Row | Structure (SMILES) | Log10 cfu Lung (M. tuberculosis H37Rv) [Log10 cfu] | Log10 cfu Spleen (M. tuberculosis H37Rv) [Log10 cfu] | reduction of bacterial burden in organs (M. tuberculosis H37Rv) | cfu reduction from lungs and spleen as compared to untreated controls (M. tuberculosis H37Rv) | time up to which drug was detectable in plasma (mouse, in vivo, po) [h] | time up to which drug was detected in organs ([1]; mouse, in vivo, po) | time up to which drug was detectable in plasma (oral free drug, mice) | time up to which drug was detected in organs ([1]; oral free drug, mice) [h]
1 | Clc1ccc(COC(Cn2ccnc2)c2ccc(Cl)cc2Cl)cc1 (stereo not drawn) [Free econazole, econazole] | 4.87 ± 0.040 | 4.89 ± 0.020 | about 2 log cfu | approximately 2 Log10 cfu | 3 to 4 | up to 12 h |  | 
2 | COc1c(N2C[C@@H]3CCCN[C@@H]3C2)c(F)cc2c(=O)c(C(=O)O)cn(C3CC3)c12 [Free moxifloxacin, moxifloxacin] | 4.96 ± 0.013 | 4.96 ± 0.013 | about 2 log cfu | approximately 2 Log10 cfu |  |  | up to 12 h | ≤ 24
